Test results from PubChem BioAssay (NCI).
Where “and” joins values, the source holds several entries; their conditions need not be identical. Identical values can stand only once.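 All cell lines were grown in 96-well plates and treated with compound for 48 hours. GI50: concentration for 50% inhibition of growth. Definition used: TGI = concentration required for complete inhibition of growth.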

What was measured:
Assay in all cases: NCI-60 cell line screen, 48 h
SK-MEL-5 melanoma = test system: SK-MEL-5 melanoma
ACHN renal = test system: ACHN renal
OVCAR-5 ovarian = test system: OVCAR-5 ovarian
U251 CNS = test system: U251 CNS
LOX IMVI melanoma = test system: LOX IMVI melanoma
A549 NSCLC = test system: A549 NSCLC
HT29 colon = test system: HT29 colon
HOP-62 NSCLC = test system: HOP-62 NSCLC
OVCAR-3 ovarian = test system: OVCAR-3 ovarian
DU-145 prostate = test system: DU-145 prostate

| Compound | TGI (SK-MEL-5 melanoma) | TGI (ACHN renal) | TGI (OVCAR-5 ovarian) | TGI (U251 CNS) | TGI (LOX IMVI melanoma) | TGI (A549 NSCLC) | TGI (HT29 colon) | TGI (HOP-62 NSCLC) | TGI (OVCAR-3 ovarian) | TGI (DU-145 prostate) [µM] | GI50 (SK-MEL-5 melanoma) [µM] | GI50 (ACHN renal) [µM] | GI50 (OVCAR-5 ovarian) [µM] | GI50 (U251 CNS) [µM] | GI50 (LOX IMVI melanoma) [µM] | GI50 (A549 NSCLC) [µM] | GI50 (HT29 colon) [µM] | GI50 (DU-145 prostate) [µM] | GI50 (OVCAR-3 ovarian) [µM] | GI50 (HOP-62 NSCLC) [µM] |
| --- | --- | --- | --- | --- | --- | --- | --- | --- | --- | --- | --- | --- | --- | --- | --- | --- | --- | --- | --- | --- |
| Cc1ccc(NC(=O)CC/C(CC(=O)C(C)(C)C)=N/NC(=O)C[N+](C)(C)C)cc1C | > 100 µM | > 100 µM | > 100 µM | > 100 µM | > 100 µM | 59.4 µM | > 100 µM | > 100 µM | > 100 µM | – | – | – | – | – | – | – | – | – | – | – |
| CSc1nc2c(nc(N)n2C2OC(COC(C)=O)C(OC(C)=O)C(OC(C)=O)C2OC(C)=O)c(=O)n1C (stereo not drawn) | > 100 µM | > 100 µM | > 100 µM | > 100 µM | > 100 µM | > 100 µM | > 100 µM | > 100 µM | > 100 µM | – | – | – | – | – | – | – | – | – | – | – |
| COc1ccc(CNC(C)C(=O)O)cc1 (stereo not drawn) | > 100 µM | > 100 µM | > 100 µM | > 100 µM | > 100 µM | > 100 µM | > 100 µM | > 100 µM | > 100 µM | > 100 | – | – | – | – | – | – | – | – | – | – |
| CCOC(=O)C1=C(C)N(Cc2ccccc2)C(=O)C1CC#N (stereo not drawn) | – | > 100 µM | – | > 100 µM | – | > 100 µM | > 100 µM | > 100 µM | > 100 µM | – | – | – | – | – | – | – | – | – | – | – |
| CO[C@]12C=C/C(=C(/C(=O)OCc3cccnc3)C(=O)CCCCCCCC[C@@]3(OC)C=C/C(=C(/C(=O)OCc4cccnc4)C(=O)CCCCCCCC1)O3)O2 | 1.64 µM | > 50 µM | 15.5 µM | 8.58 µM | 1.6 µM | 9.2 µM | > 50 µM | – | 3.84 µM | 12.7 | 0.856 | 1.3 | 1.99 | 1.66 | 0.585 | 1.65 | 1.7 | 1.76 | 1.16 | – |
| COC(=O)NC(=Nc1ccc(Oc2ccccc2)cc1NC=O)NC(=O)OC | > 100 µM | > 100 µM | > 100 µM | 1.21 µM | > 100 µM | > 100 µM | 2.96 µM | > 100 µM | – | – | – | – | – | – | – | – | – | – | – | – |
| C=C(C)C1CC=C(C)CC1 (stereo not drawn) | > 100 µM and 1560 µM | > 100 µM and 1570 µM | > 100 µM and 2420 µM | > 100 µM and 1480 µM | > 100 µM and 1620 µM | > 100 µM and 1790 µM | > 100 µM and 1730 µM | > 100 µM and 1630 µM | > 100 µM and 1590 µM | – | > 100 | > 100 | > 100 | > 100 | > 100 | > 100 | > 100 | – | > 100 | > 100 |
| Cn1c(=O)c2ccc(-c3ccc(Br)cc3)nc2n(C)c1=O | > 100 µM | – | > 100 µM | > 100 µM | > 100 µM | > 100 µM | > 100 µM | > 100 µM | > 100 µM | – | – | – | – | – | – | – | – | – | – | – |
| COc1ccc2c(c1)[n+]([O-])c(-c1ccc(Br)cc1)c(N)[n+]2[O-] | 36.5 µM | > 100 µM | > 100 µM | > 100 µM | – | > 100 µM | > 100 µM | > 100 µM | > 100 µM | – | – | – | – | – | – | – | – | – | – | – |
| COc1ccc(-c2nc(Nc3ccc(-c4nc5ccccc5[nH]4)cc3)nc(N3CCOCC3)n2)cc1 | 3.36 µM | > 100 µM | 8.9 µM | 13.6 µM | – | > 100 µM | 5.39 µM | 5.3 µM | – | > 100 | 1.79 | 2.55 | 2.7 | 2.04 | – | 3.24 | 2.23 | 4.54 | – | 2.11 |
| O=C(CC1(O)C(=O)Nc2ccccc21)c1ccc(F)cc1 (stereo not drawn) | > 100 µM | > 100 µM | > 100 µM | – | > 100 µM | > 100 µM | > 100 µM | – | > 100 µM | – | – | – | – | – | – | – | – | – | – | – |
| CC(C)=CCC1=C(OCC(=O)O)C(=O)c2ccccc2C1=O | 41.4 µM | > 100 µM | – | > 100 µM | > 100 µM | > 100 µM | > 100 µM | > 100 µM | – | > 100 | – | – | – | – | – | – | – | – | – | – |
| N#Cc1cc([N+](=O)[O-])ccc1NC(=O)C(F)(F)F | > 100 µM | > 100 µM | > 100 µM | > 100 µM | > 49.7 µM | > 100 µM | > 67.6 µM | > 100 µM | > 100 µM | – | – | – | – | – | – | – | – | – | – | – |
| C/C=C(/CCC1NCCC2c3ccccc3NC12)[Si](C)(C)C (stereo not drawn) | 26 µM | 27.2 µM | 20 µM | 25.4 µM | 20.2 µM | 29.2 µM | 8.53 µM | 28.6 µM | 24 µM | – | – | – | – | – | – | – | – | – | – | – |
| O=[N+]([O-])c1ccc(Sc2nc(Cl)nc(NC3CCCC3)n2)cc1 | > 10 µM | > 10 µM | > 10 µM | > 10 µM | > 10 µM | – | > 10 µM | > 10 µM | > 10 µM | > 10 | 5.32 | > 10 | > 10 | > 10 | > 10 | – | > 10 | 7.99 | > 10 | > 10 |
| Clc1nc(Cl)c2c3c(sc2n1)CCCC3 | – | > 100 µM | > 100 µM | > 100 µM | > 100 µM | > 100 µM | > 100 µM | > 100 µM | > 30.4 µM | > 100 | – | 5.27 | > 100 | > 20 | 1.78 | > 24.4 | 3.67 | 3.71 | 3.3 | > 100 |
| COC(=O)NN1C(C)=C(C(=O)OC)C2(C#N)C(C(=O)OC)=C(C)N(NC(=O)OC)C12N (stereo not drawn) | – | > 100 µM | > 100 µM | > 100 µM | > 100 µM | > 100 µM | > 100 µM | > 100 µM | – | – | – | – | – | – | – | – | – | – | – | – |
| NS(=O)(=O)c1ccc(NCc2cnc3ccccc3n2)cc1 | > 100 µM | > 100 µM | > 100 µM | > 100 µM | – | > 100 µM | > 100 µM | > 100 µM | > 100 µM | > 100 | – | – | – | – | – | – | – | – | – | – |
| N.N.O=P([O-])([O-])CN(CCN(CP(=O)([O-])[O-])CP(=O)([O-])[O-])CP(=O)([O-])[O-].[Pt+2] | > 100 µM | > 100 µM | > 100 µM | > 100 µM | > 100 µM | > 100 µM | > 100 µM | > 100 µM | > 100 µM | – | > 100 | > 100 | > 100 | > 100 | > 100 | > 100 | > 100 | – | > 100 | > 100 |
